Earlier results on 2 compounds are cited in US20180140566A1, “ACETAMINOPHEN AND TRAMADOL COMPOUND ORAL SOLUTION” (BORA PHARMACEUTICALS CO., LTD., priority 2016, published 2018).

Take `COc1cccc(C2(O)CCCCC2CN(C)C)c1` (stereo not drawn) [Tramadol, tramadol]: the solubility in acetone result (acetone, in words) is “hardly dissolves”. Also, under “water, in words”, the solubility in water entry was “makes great aqueous solutions”.

Take `CC(=O)Nc1ccc(O)cc1` [acetaminophen]: the “amount of acetaminophen dissolved per milliliter of water” value (per milliliter (mL) of water, at 25 degrees Celsius) is given as “no more than 14.00 mg”.
